SMILES strings stand for the structures.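 Five concentrations, 48 hours, 96-well plates. TGI: total growth inhibition.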 *1 amine or outer side, *2 acyl side, *3 side chain or, on linkers, in order; H or OH if unused. Where a SMILES comes first, the peptide text is derived from it. Bridges are numbered along the chain shown (N, C = ends). Roman numbers before positions name the chains, in order. [ ]: non-standard residue; d: D form. Actinocin(9to1) = Cc1c2oc3c(C)ccc(C(=O)[*:1])c3nc-2c(C(=O)[*:2])c(N)c1=O; NMeH = CN[CH](Cc1c[nH]cn1)C(=O)O; Sar = CNCC(=O)O

Among the test systems are UACC-257 melanoma; MALME-3M melanoma; HL-60(TB) leukemia; IGROV1 ovarian; HT29 colon; SN12C renal; LOX IMVI melanoma; SF-539 CNS; U251 CNS; NCI-H226 lung; SF-268 CNS.
Common to all, as to assay: NCI anticancer screen, dose series, 48 h

In the case of `Cc1c2oc3c(C)ccc(C(=O)NC4C(=O)NC(C(C)C)C(=O)N5CCCC5C(=O)N(C)CC(=O)N(C)C(Cc5cnc[nH]5)C(=O)OC4C)c3nc-2c(C(=O)NC2C(=O)NC(C(C)C)C(=O)N3CCCC3C(=O)N(C)CC(=O)N(C)C(Cc3cnc[nH]3)C(=O)OC2C)c(N)c1=O` (stereo unspecified) (I: TVP[Sar][NMeH] / II: TVP[Sar][NMeH]; ester I:1-I:C, II:1-II:C; linker I:N-II:N via Actinocin(9to1); configuration not given here), the TGI with UACC-257 melanoma, in the assay with MALME-3M melanoma, with HL-60(TB) leukemia, in the assay on IGROV1 ovarian, with HT29 colon and in the assay with SN12C renal was more than 100 µM each time. Besides, the TGI in the assay on LOX IMVI melanoma, in the assay on SF-539 CNS, with U251 CNS, with NCI-H226 lung and in the assay with SF-268 CNS was more than 100 µM in each case.
Turning to `COC(=O)[C@@H]1CS(=O)(=O)C(C(C)C)N1C(C)=O` (stereo partly specified), the TGI was more than 100 µM with UACC-257 melanoma; more than 100 µM in the assay with MALME-3M melanoma; 32.1 µM in the assay with HL-60(TB) leukemia; more than 100 µM in the assay on IGROV1 ovarian; more than 100 µM with HT29 colon; more than 100 µM with SN12C renal. Moreover, the TGI with LOX IMVI melanoma, in the assay with SF-539 CNS, with U251 CNS, in the assay with NCI-H226 lung and in the assay on SF-268 CNS was more than 100 µM throughout.
On to `COc1ccccc1-n1c(=O)n(C)c(=O)n1C(C)(C)C`, for which the TGI in the assay with UACC-257 melanoma, in the assay with MALME-3M melanoma, with HL-60(TB) leukemia, in the assay with HT29 colon, in the assay on SN12C renal and with LOX IMVI melanoma was more than 100 µM throughout. Moreover, the TGI in the assay with SF-539 CNS, with U251 CNS, with NCI-H226 lung and with SF-268 CNS was more than 100 µM throughout.
For `C1=NCCNCCNCCN=Cc2ccc(cc2)OCc2cccc(n2)COc2ccc1cc2`, the TGI in the assay on UACC-257 melanoma, with MALME-3M melanoma, with HL-60(TB) leukemia, in the assay on IGROV1 ovarian, in the assay on HT29 colon and in the assay with SN12C renal was more than 100 µM throughout. Further, the TGI in the assay on SF-539 CNS, in the assay on U251 CNS, in the assay on NCI-H226 lung and in the assay on SF-268 CNS was more than 100 µM each time.
As for `N#CC1(C#N)C(C#N)(C#N)C1(C#N)C(N)=O`, the TGI in the assay with UACC-257 melanoma, with MALME-3M melanoma, in the assay with HL-60(TB) leukemia, with IGROV1 ovarian, in the assay on HT29 colon and in the assay on SN12C renal was more than 100 µM each time. In addition, the TGI in the assay with LOX IMVI melanoma, in the assay with U251 CNS, with NCI-H226 lung and with SF-268 CNS was more than 100 µM each time.
Regarding `O=C1NC(=O)c2ccccc2/C1=C/c1ccc2c(c1)OCO2`, the TGI was 55.3 µM in the assay on UACC-257 melanoma; more than 100 µM in the assay on MALME-3M melanoma; more than 100 µM in the assay with HL-60(TB) leukemia; 60.9 µM with IGROV1 ovarian; 44.8 µM with HT29 colon; 47.1 µM in the assay with SN12C renal. Moreover, the TGI in the assay on LOX IMVI melanoma is 46.4 µM; in the assay with SF-539 CNS, 46.7 µM; with NCI-H226 lung it was more than 100 µM; in the assay on SF-268 CNS, 82.1 µM.
In the case of `CCN1C/C(=C\c2ccc(Cl)cc2)c2nc(N)c(C#N)c(-c3ccc(Cl)cc3)c2C1`, the TGI in the assay on UACC-257 melanoma, in the assay on MALME-3M melanoma, in the assay with HL-60(TB) leukemia, in the assay with IGROV1 ovarian, with HT29 colon and in the assay on LOX IMVI melanoma was more than 100 µM in each case. Moreover, the TGI in the assay with U251 CNS, with NCI-H226 lung and in the assay with SF-268 CNS was more than 100 µM in each case.
As to `Cc1nc2cc(F)c(F)cc2[nH]c1=O`, the TGI with UACC-257 melanoma, with MALME-3M melanoma, in the assay with HL-60(TB) leukemia, in the assay on HT29 colon, with SN12C renal and in the assay with LOX IMVI melanoma was more than 100 µM throughout. Moreover, the TGI in the assay with SF-539 CNS, with U251 CNS, in the assay with NCI-H226 lung and with SF-268 CNS was more than 100 µM in each case.
For the compound `CN1/C(=C/C=C/C=C/C=C2C(=O)c3ccccc3C2=O)C(C)(C)c2ccccc21`, the TGI in the assay with UACC-257 melanoma was 54.1 µM; in the assay on MALME-3M melanoma, 94.1 µM; in the assay with HL-60(TB) leukemia, more than 100 µM; with IGROV1 ovarian, more than 100 µM; with HT29 colon, more than 100 µM; in the assay on SN12C renal, more than 100 µM. The TGI is more than 100 µM in the assay on LOX IMVI melanoma, 91.3 µM in the assay with SF-539 CNS, more than 100 µM with NCI-H226 lung and more than 100 µM in the assay with SF-268 CNS.
Turning to `Cc1ccc(S(=O)(=O)NC(CCC(=O)NNc2ccccc2)C(=O)NNc2ccccc2)cc1` (stereo unspecified), the TGI in the assay with UACC-257 melanoma, in the assay with MALME-3M melanoma, in the assay with HL-60(TB) leukemia, in the assay with IGROV1 ovarian, in the assay with HT29 colon and in the assay with LOX IMVI melanoma was more than 100 µM each time. For the same compound, the TGI in the assay with SF-539 CNS, in the assay with U251 CNS, with NCI-H226 lung and with SF-268 CNS was more than 100 µM each time.
On to `Cc1cc(C)c2c(c1)CC1(Cc3cc(C)c(C)cc3C1=O)C2=O` (stereo unspecified), for which the TGI in the assay on UACC-257 melanoma, with MALME-3M melanoma, in the assay with HL-60(TB) leukemia, in the assay with IGROV1 ovarian, with SN12C renal and in the assay on LOX IMVI melanoma was more than 100 µM throughout. In addition, the TGI in the assay with SF-539 CNS, in the assay with U251 CNS, in the assay on NCI-H226 lung and in the assay on SF-268 CNS was more than 100 µM in each case.
Regarding `CCOC(=O)c1ccc(Nc2nc3ccccc3nc2-c2cccs2)cc1`, the TGI with UACC-257 melanoma is more than 100 µM; with MALME-3M melanoma it was more than 100 µM; with HL-60(TB) leukemia, more than 100 µM; with IGROV1 ovarian, more than 100 µM; with SN12C renal it was 99.3 µM; with LOX IMVI melanoma it was 74.1 µM. Besides, the TGI in the assay on SF-539 CNS, in the assay with U251 CNS, with NCI-H226 lung and in the assay with SF-268 CNS was more than 100 µM throughout.
Turning to `N#Cc1c(-c2ccc(Cl)cc2)cc(-c2ccc(Nc3ccnc4cc(Cl)ccc34)cc2)[nH]c1=O`, the TGI in the assay on UACC-257 melanoma, with MALME-3M melanoma, with HL-60(TB) leukemia, in the assay with IGROV1 ovarian, in the assay with HT29 colon and with LOX IMVI melanoma was more than 100 µM throughout. The TGI is more than 100 µM in the assay with SF-539 CNS, more than 61 µM with U251 CNS, more than 100 µM in the assay with NCI-H226 lung and more than 100 µM in the assay on SF-268 CNS.

These data come from PubChem BioAssay (NCI).
